Activity calls are given as the source filed them. No cut-off for these calls is given here.
Columns and labels:
[1] = biological target: T1, Sodium channel protein type 5 subunit alpha (Homo sapiens, UniProt Q14524); test: Inhibition of human Nav1.5 by automated voltage clamp electrophysiology
[2] = Intrinsic clearance in mouse liver microsomes; type: ADME, Microsome; conditions: read-out: CLH
[3] = Intrinsic clearance in human liver microsomes; type: ADME, Microsome; conditions: read-out: CLH
[4] = Inhibition of human Nav1.5 VSD4 R1631A mutant by automated voltage clamp electrophysiology
[5] = Inhibition of human Nav1.5 VSD4 R1625A mutant by automated voltage clamp electrophysiology
[6] = Inhibition of human Nav1.5 VSD4 R1622A mutant by automated voltage clamp electrophysiology
[7] = biological target: Sodium channel protein type 5 subunit alpha (Homo sapiens, UniProt Q14524, R814A); test: Inhibition of human Nav1.5 VSD2 R814A mutant by automated voltage clamp electrophysiology
[8] = Inhibition of human Nav1.5 VSD4 R1634A mutant by automated voltage clamp electrophysiology
[9] = Inhibition of human Nav1.5 VSD4 R1628A mutant by automated voltage clamp electrophysiology
[10] = Volume of distribution at steady state in FVB mouse at 1 mg/kg, iv; type: ADME, organism-based; conditions: in vivo, read-out: Vdss
[11] = Half life in FVB mouse at 10 mg/kg, po; type: ADME, organism-based; conditions: in vivo
[12] = Ratio of drug level in brain to plasma in FVB mouse at 10 mg/kg, po measured after 2 hrs; type: ADME, organism-based; conditions: read-out: BPR
[13] = Inhibition of human Nav1.5 VSD4 F1759A mutant by automated voltage clamp electrophysiology
[14] = biological target: T1, Sodium channel protein type 5 subunit alpha; test: Displacement of [3H]BNZA from Nav1.5 (unknown origin)
[15] = Half life in FVB mouse at 1 mg/kg, iv; type: ADME, organism-based; conditions: in vivo
Cytochrome P450 1A2 = Cytochrome P450 1A2 (Homo sapiens, UniProt P05177); test: Inhibition of CYP1A2 (unknown origin); type: ADME
[16] = AUC in FVB mouse at 10 mg/kg, po; type: ADME, organism-based; set-up: dose 10 mg/kg; conditions: in vivo
[17] = Oral bioavailability in FVB mouse at 10 mg/kg; type: ADME, organism-based; conditions: in vivo
Cytochrome P450 2C9 = Cytochrome P450 2C9 (Homo sapiens, UniProt P11712); test: Inhibition of CYP2C9 (unknown origin); type: ADME
Cytochrome P450 2C19 = Cytochrome P450 2C19 (Homo sapiens, UniProt P33261); test: Inhibition of CYP2C19 (unknown origin); type: ADME
Cytochrome P450 2D6 = Cytochrome P450 2D6 (Homo sapiens, UniProt P10635); test: Inhibition of CYP2D6 (unknown origin); type: ADME
[18] = Cmax in FVB mouse at 10 mg/kg, po; type: ADME, organism-based; set-up: route oral, dose 10 mg/kg; conditions: in vivo
Cytochrome P450 3A4 = Cytochrome P450 3A4 (Homo sapiens, UniProt P08684); test: Inhibition of CYP3A4 (unknown origin); type: ADME
[19] = Clearance in FVB mouse at 1 mg/kg, iv; type: ADME, organism-based; conditions: in vivo
[20] = Plasma concentration in FVB mouse at 10 mg/kg, po measured after 2 hrs; type: ADME, organism-based
[21] = Drug uptake in FVB mouse brain at 10 mg/kg, po measured after 2 hrs; type: ADME, organism-based; conditions: read-out: Drug uptake
[22] = AUC in FVB mouse at 1 mg/kg, iv; type: ADME, organism-based; set-up: dose 1 mg/kg; conditions: in vivo
Homo sapiens [23] = species on record: Homo sapiens; test: Selectivity ratio of IC50 for inhibition of human Nav1.5 VSD4 F1759A mutant to IC50 for inhibition of human Nav1.5 by automated voltage clamp electrophysiology
[24] = biological target: 5-hydroxytryptamine receptor 3A (Homo sapiens) (UniProt P46098); test: Inhibition of 5HT3A channel (unknown origin) by voltage clamp assay
Homo sapiens [25] = species on record: Homo sapiens; test: Inhibition of Kv4.2/KChIP2.2 (unknown origin) by voltage clamp method
[26] = biological target: Transient receptor potential cation channel subfamily V member 1 (Homo sapiens) (UniProt Q8NER1); test: Inhibition of TRPV1 (unknown origin) by voltage clamp assay
[27] = biological target: Potassium voltage-gated channel subfamily A member 5 (Homo sapiens) (UniProt P22460); test: Inhibition of Kv1.5 (unknown origin) by voltage clamp method
Homo sapiens [28] = species on record: Homo sapiens; test: Inhibition of GABA channel (unknown origin) by voltage clamp assay
Homo sapiens [29] = species on record: Homo sapiens; test: Selectivity ratio of IC50 for human Nav1.1 to IC50 for human Nav1.5
Homo sapiens [30] = species on record: Homo sapiens; test: Selectivity ratio of IC50 for human Nav1.2 to IC50 for human Nav1.5
Homo sapiens [31] = species on record: Homo sapiens; test: Selectivity ratio of IC50 for human Nav1.6 to IC50 for human Nav1.5
[32] = biological target: Voltage-gated potassium channel KCNC2 (Homo sapiens) (UniProt Q96PR1); test: Inhibition of Kv3.2 (unknown origin) by voltage clamp method
iPSC-CM [33] = test: Anti-arrythmic activity in human iPSC-derived cardiomyocytes assessed as maximum diastolic membrane potential at 100 nM in presence of 15 to 30 nM ATX-II by current clamp analysis; type: functional, cell-based
[34] = biological target: Potassium voltage-gated channel subfamily B member 1 (Homo sapiens) (UniProt Q14721); test: Inhibition of Kv2.1 (unknown origin) by voltage clamp method
[35] = biological target: Voltage-dependent T-type calcium channel subunit alpha-1I (Homo sapiens) (UniProt Q9P0X4); test: Inhibition of Cav3.3 (unknown origin) by voltage clamp assay
[36] = biological target: Potassium/sodium hyperpolarization-activated cyclic nucleotide-gated channel 2 (Homo sapiens) (UniProt Q9UL51); test: Inhibition of HCN2 (unknown origin) by voltage clamp method
iPSC-CM [37] = test: Anti-arrythmic activity in human iPSC-derived cardiomyocytes assessed as AP amplitude at 100 nM in presence of 15 to 30 nM ATX-II by current clamp analysis; type: functional, cell-based
[38] = biological target: Potassium/sodium hyperpolarization-activated cyclic nucleotide-gated channel 4 (Homo sapiens) (UniProt Q9Y3Q4); test: Inhibition of HCN4 (unknown origin) by voltage clamp method
Homo sapiens [39] = species on record: Homo sapiens; test: Selectivity ratio of IC50 for inhibition of human Nav1.5 expressed in HEK293 cells assessed as inhibition of peak current to IC50 for inhibition of human Nav1.5 expressed in HEK293 cells assessed as inhibition of late current; type: cell-based
[40] = biological target: Voltage-dependent N-type calcium channel subunit alpha-1B (Homo sapiens) (UniProt Q00975); test: Inhibition of Cav2.2 (unknown origin) by voltage clamp assay
[41] = biological target: Voltage-dependent T-type calcium channel subunit alpha-1G (Homo sapiens) (UniProt O43497); test: Inhibition of Cav3.1 (unknown origin) by voltage clamp assay

T1 sequence (Q14524 whole entry): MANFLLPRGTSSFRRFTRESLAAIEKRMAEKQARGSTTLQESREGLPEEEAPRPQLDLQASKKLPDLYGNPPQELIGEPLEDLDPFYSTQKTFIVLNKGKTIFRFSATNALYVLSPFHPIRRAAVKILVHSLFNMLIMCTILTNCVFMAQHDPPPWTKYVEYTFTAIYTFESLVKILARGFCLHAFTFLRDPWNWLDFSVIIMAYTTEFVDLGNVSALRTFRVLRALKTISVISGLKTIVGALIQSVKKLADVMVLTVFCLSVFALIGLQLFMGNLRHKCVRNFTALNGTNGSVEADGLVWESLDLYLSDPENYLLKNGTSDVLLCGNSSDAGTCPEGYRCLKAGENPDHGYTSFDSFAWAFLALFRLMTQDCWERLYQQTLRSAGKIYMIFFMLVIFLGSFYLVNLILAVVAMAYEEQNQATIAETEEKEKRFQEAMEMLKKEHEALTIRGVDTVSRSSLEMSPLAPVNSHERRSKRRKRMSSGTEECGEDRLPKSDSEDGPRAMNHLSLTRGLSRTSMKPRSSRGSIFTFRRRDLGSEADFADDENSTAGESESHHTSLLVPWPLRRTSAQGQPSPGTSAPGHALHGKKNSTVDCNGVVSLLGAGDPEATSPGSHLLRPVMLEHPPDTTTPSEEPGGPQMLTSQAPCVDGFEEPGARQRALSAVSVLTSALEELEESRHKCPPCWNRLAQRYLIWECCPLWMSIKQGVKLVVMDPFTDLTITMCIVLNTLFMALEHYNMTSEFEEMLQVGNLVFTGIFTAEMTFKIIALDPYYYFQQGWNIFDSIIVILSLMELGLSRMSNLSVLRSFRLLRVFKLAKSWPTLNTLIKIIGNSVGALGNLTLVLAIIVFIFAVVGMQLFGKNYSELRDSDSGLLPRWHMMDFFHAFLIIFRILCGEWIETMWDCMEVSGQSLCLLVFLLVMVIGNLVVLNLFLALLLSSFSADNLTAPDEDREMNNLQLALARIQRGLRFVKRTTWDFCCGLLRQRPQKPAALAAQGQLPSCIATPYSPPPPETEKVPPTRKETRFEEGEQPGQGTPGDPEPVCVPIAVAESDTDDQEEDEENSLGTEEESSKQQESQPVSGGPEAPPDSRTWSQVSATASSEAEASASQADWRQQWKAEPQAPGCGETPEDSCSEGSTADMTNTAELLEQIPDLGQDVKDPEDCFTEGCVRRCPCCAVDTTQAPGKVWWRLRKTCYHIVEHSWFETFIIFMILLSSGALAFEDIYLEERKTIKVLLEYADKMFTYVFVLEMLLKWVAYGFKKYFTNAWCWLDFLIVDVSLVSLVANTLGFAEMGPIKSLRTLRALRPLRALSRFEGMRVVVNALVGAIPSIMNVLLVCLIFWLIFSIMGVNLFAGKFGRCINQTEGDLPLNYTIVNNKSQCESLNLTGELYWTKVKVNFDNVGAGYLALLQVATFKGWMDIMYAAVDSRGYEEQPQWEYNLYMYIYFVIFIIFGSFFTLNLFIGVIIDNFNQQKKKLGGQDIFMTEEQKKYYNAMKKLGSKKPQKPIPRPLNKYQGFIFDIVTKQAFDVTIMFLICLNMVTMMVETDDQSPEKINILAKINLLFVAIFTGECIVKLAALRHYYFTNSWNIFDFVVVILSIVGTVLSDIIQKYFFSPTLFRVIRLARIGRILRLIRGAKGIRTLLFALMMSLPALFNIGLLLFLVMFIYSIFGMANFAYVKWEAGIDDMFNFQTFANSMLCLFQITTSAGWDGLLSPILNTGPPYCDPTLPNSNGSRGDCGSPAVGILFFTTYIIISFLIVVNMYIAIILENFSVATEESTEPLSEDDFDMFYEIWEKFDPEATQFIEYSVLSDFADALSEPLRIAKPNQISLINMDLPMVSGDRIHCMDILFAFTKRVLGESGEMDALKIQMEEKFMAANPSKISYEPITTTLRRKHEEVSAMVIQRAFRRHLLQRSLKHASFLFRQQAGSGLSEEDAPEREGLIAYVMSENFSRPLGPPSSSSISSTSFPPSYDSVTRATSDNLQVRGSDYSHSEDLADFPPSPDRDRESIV
Chain of Potassium voltage-gated channel subfamily B member 1 (Homo sapiens) (Q14721 whole entry): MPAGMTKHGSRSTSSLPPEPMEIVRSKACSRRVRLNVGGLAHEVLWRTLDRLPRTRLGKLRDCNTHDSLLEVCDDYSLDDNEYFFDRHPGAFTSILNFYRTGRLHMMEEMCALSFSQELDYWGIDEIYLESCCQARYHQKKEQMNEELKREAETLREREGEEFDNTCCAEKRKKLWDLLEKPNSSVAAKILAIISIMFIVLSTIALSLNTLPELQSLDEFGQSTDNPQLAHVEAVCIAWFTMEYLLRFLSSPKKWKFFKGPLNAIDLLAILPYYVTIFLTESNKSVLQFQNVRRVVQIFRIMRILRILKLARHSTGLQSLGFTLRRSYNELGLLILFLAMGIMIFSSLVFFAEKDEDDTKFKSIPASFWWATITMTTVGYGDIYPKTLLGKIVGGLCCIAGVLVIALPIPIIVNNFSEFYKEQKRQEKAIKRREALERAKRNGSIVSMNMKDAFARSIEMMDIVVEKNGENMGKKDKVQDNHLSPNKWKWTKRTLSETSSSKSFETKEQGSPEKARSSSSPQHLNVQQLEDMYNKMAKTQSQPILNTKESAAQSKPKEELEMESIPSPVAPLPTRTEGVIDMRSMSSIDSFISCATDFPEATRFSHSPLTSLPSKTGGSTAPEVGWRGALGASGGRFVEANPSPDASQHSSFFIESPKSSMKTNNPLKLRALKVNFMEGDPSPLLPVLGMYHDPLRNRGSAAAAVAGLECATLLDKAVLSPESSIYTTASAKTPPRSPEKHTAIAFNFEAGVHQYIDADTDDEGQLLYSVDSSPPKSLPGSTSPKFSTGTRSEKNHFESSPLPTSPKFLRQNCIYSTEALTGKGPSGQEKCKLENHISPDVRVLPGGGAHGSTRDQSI
Chain of Potassium voltage-gated channel subfamily A member 5 (Homo sapiens) (P22460 whole entry): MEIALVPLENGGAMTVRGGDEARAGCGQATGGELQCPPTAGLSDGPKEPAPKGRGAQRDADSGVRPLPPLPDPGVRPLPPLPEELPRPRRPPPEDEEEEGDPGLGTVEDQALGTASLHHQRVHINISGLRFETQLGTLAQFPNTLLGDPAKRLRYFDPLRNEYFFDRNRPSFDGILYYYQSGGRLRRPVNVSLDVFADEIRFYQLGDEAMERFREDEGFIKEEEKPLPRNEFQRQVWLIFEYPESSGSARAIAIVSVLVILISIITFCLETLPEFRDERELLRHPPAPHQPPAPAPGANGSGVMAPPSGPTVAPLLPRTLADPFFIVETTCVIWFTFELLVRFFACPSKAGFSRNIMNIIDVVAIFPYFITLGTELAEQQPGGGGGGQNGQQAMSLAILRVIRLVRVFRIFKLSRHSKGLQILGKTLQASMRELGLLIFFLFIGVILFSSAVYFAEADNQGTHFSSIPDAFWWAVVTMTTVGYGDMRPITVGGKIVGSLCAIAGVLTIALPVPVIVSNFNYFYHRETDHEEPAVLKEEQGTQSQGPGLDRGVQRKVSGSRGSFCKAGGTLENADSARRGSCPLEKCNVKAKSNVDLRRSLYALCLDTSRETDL
Chain of Potassium/sodium hyperpolarization-activated cyclic nucleotide-gated channel 4 (Homo sapiens) (Q9Y3Q4 whole entry): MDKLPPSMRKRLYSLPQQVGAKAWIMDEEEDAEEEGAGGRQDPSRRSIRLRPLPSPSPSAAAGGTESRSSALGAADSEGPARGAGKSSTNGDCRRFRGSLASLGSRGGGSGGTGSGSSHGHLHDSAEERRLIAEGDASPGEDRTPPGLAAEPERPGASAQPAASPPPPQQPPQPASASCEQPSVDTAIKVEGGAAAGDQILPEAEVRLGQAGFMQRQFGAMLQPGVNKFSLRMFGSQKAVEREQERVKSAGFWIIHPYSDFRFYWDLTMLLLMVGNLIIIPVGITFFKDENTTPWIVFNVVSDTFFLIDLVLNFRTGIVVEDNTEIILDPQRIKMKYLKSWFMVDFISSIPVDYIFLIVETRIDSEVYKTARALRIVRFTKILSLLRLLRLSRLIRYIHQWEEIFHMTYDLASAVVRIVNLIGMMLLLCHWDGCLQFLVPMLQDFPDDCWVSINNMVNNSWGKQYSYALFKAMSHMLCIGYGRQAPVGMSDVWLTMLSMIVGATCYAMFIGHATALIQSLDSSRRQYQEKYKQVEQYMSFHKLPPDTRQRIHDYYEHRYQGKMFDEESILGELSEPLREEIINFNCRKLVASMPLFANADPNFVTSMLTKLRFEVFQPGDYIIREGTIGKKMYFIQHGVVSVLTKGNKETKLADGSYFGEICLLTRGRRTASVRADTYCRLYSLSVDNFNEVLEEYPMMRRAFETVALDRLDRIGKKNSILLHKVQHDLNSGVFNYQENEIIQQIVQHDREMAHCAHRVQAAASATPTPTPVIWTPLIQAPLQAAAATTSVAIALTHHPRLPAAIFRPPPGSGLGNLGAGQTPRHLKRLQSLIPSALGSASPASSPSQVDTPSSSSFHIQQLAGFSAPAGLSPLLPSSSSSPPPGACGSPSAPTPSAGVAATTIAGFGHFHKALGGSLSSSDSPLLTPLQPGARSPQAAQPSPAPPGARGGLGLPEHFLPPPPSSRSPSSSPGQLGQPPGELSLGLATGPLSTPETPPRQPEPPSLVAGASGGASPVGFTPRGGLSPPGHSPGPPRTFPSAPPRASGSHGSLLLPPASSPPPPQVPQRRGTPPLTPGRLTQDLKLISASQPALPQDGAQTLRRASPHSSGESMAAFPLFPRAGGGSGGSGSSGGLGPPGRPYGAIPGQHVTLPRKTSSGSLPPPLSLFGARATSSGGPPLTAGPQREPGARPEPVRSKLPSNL

CLint scaled [2] [mL/min/kg]	CLint scaled [3] [mL/min/kg]	SMILES	IC50 [1] [nM]	also measured
–	–	O=S(=O)(Nc1ncc(F)s1)c1cc(F)c(O[C@H]2CCN(CC(F)(F)F)C[C@@H]2c2ccccc2)cc1F (racemic)	4650	–
–	–	O=S(=O)(Nc1nncs1)c1cc(F)c(O[C@H]2CCN(CC(F)(F)F)C[C@@H]2c2ccccc2)cc1F (racemic)	25100	–
63	8.4	O=S(=O)(Nc1cccc(F)n1)c1cnc(O[C@H]2CCN(CC(F)(F)F)C[C@@H]2c2ccc(F)c(F)c2)c(F)c1 (racemic)	1550	–
–	–	O=S(=O)(Nc1ccccn1)c1cc(F)c(O[C@H]2CCN(CC(F)(F)F)C[C@@H]2c2ccccc2)cc1F (racemic)	4320	–
53	13	O=S(=O)(Nc1cccc(F)n1)c1cc(F)c(O[C@H]2CCN(CC(F)(F)F)C[C@@H]2c2cccc(F)c2)cc1F (racemic)	460	–
65	15	O=S(=O)(Nc1cccc(F)n1)c1cc(F)c(O[C@H]2CCN(CC(F)(F)F)C[C@@H]2c2ccc(F)c(F)c2)c(F)c1 (racemic)	65	–
–	–	O=S(=O)(Nc1cccc(C(F)(F)F)n1)c1cc(F)c(O[C@H]2CCN(CC(F)(F)F)C[C@@H]2c2ccccc2)cc1F (racemic)	6330	–
–	–	O=S(=O)(Nc1ccc(F)cn1)c1cc(F)c(O[C@H]2CCN(CC(F)(F)F)C[C@@H]2c2ccccc2)cc1F (racemic)	13200	–
70	16	O=S(=O)(Nc1cccc(F)n1)c1cc(F)c(O[C@H]2CCN(CC(F)(F)F)C[C@@H]2c2ccccc2)cc1F (racemic)	700	IC50 [4]: 570 nM; IC50 [5]: 810 nM; IC50 [6]: 1290 nM; IC50 [7]: 410 nM; IC50 [8]: 1210 nM; IC50 [9]: 820 nM
49	13	O=S(=O)(Nc1cccc(F)n1)c1cc(F)c(O[C@H]2CCN(CC(F)(F)F)C[C@@H]2c2ccc(F)cc2F)cc1F (racemic)	470	–
–	–	N#Cc1cccc([C@H]2CN(CC(F)(F)F)CC[C@@H]2Oc2cc(F)c(S(=O)(=O)Nc3cccc(F)n3)cc2F)c1 (racemic)	4580	–
–	–	O=S(=O)(Nc1cccnn1)c1cc(F)c(O[C@H]2CCN(CC(F)(F)F)C[C@@H]2c2ccccc2)cc1F (racemic)	25500	–
49	7.5	O=S(=O)(Nc1cccc(F)n1)c1cc(F)c(O[C@H]2CCN(CC(F)(F)F)C[C@@H]2c2ccc(F)c(F)c2)cc1F (racemic)	260	–
–	–	O=S(=O)(Nc1ncccc1F)c1cc(F)c(O[C@H]2CCN(CC(F)(F)F)C[C@@H]2c2ccccc2)cc1F (racemic)	5040	–
65	14	O=S(=O)(Nc1cccc(F)n1)c1cc(F)c(O[C@H]2CCN(CC(F)(F)F)C[C@@H]2c2ccc(F)c(F)c2)c(F)c1F (racemic)	31	–
–	–	CS(=O)(=O)c1cccc([C@H]2CN(CC(F)(F)F)CC[C@@H]2Oc2cc(F)c(S(=O)(=O)Nc3cccc(F)n3)cc2F)c1 (racemic)	> 30000	–
62	11	O=S(=O)(Nc1cccc(F)n1)c1cc(F)c(O[C@H]2CCN(CC(F)(F)F)C[C@@H]2c2ccc(F)cc2)cc1F (racemic)	610	–
–	–	O=S(=O)(Nc1ncns1)c1cc(F)c(O[C@H]2CCN(CC(F)(F)F)C[C@@H]2c2ccccc2)cc1F (racemic)	7830	–
–	–	O=S(=O)(Nc1cscn1)c1cc(F)c(O[C@H]2CCN(CC(F)(F)F)C[C@@H]2c2ccccc2)cc1F (racemic)	1180	IC50 [4]: 1170 nM
–	–	O=S(=O)(Nc1cccc(Cl)n1)c1cc(F)c(O[C@H]2CCN(CC(F)(F)F)C[C@@H]2c2ccccc2)cc1F (racemic)	1100	–
–	–	O=S(=O)(Nc1cc(F)ccn1)c1cc(F)c(O[C@H]2CCN(CC(F)(F)F)C[C@@H]2c2ccccc2)cc1F (racemic)	1290	–
70	14	O=S(=O)(Nc1cscn1)c1cc(F)c(O[C@H]2CCN(CC(F)(F)F)C[C@@H]2c2ccc(F)c(F)c2)cc1F (racemic)	750	–
–	–	O=S(=O)(Nc1ccncn1)c1cc(F)c(O[C@H]2CCN(CC(F)(F)F)C[C@@H]2c2ccccc2)cc1F (racemic)	> 30000	–
71	17	O=S(=O)(Nc1cccc(F)n1)c1cc(F)c(O[C@H]2CCN(CC(F)(F)F)C[C@@H]2c2ccccc2F)cc1F (racemic)	680	–
–	–	O=S(=O)(Nc1ncccn1)c1cc(F)c(O[C@H]2CCN(CC(F)(F)F)C[C@@H]2c2ccccc2)cc1F (racemic)	7140	–
–	–	O=S(=O)(Nc1cccc(F)n1)c1cc(F)c(OC2CCN(CC(F)(F)F)CC2c2ccc(F)c(F)c2)cc1F (single isomer, unassigned; (+))	430	–
50	9	O=S(=O)(Nc1cccc(F)n1)c1cc(F)c(OC2CCN(CC(F)(F)F)CC2c2ccc(F)c(F)c2)cc1F (single isomer, unassigned; (-)) [listing 1 of 2 here]	240	Vd [10]: 0.6 L/kg; half-life [11]: 246 min; Kp at 2 h [12]: 0.28; IC50 [13]: > 10 µM; Ki [14]: 2020 nM; half-life [15]: 258 min; inhibition (INH) (Cytochrome P450 1A2): Not Active; AUC [16]: 72 µM·h; bioavailability [17]: 45%; IC50 (Cytochrome P450 2C9): 6.9 µM; inhibition (INH) (Cytochrome P450 2C19): Not Active; inhibition (INH) (Cytochrome P450 2D6): Not Active; Cmax [18]: 5.2 µM; inhibition (INH) (Cytochrome P450 3A4): Not Active; clearance [19]: 1.8 mL/min/kg; concentration at 2 h [20]: 9.37 µM; concentration at 2 h [21]: 2620 nM; AUC [22]: 16 µM·h
–	–	O=S(=O)(Nc1cccc(F)n1)c1cc(F)c(OC2CCN(CC(F)(F)F)CC2c2ccc(F)c(F)c2)cc1F (single isomer, unassigned; (-)) [listing 2 of 2 here]	–	Ratio IC50 (Homo sapiens [23]): > 40
–	–	O=S(=O)(Nc1cccc(F)n1)c1cc(F)c(O[C@H]2CCN(CC(F)(F)F)C[C@@H]2c2ccc(F)c(F)c2)c(F)c1 (stereo in doubt; (+)-6)	170	–
–	–	O=S(=O)(Nc1cccc(F)n1)c1cc(F)c(O[C@H]2CCN(CC(F)(F)F)C[C@@H]2c2ccc(F)c(F)c2)c(F)c1 (stereo in doubt; (-)-6)	–	inhibition [24]: inactive; inhibition (Homo sapiens [25]): inactive; inhibition [26]: inactive; inhibition [27]: inactive; inhibition (Homo sapiens [28]): inactive; Ratio IC50 (Homo sapiens [29]): 16; Ratio IC50 (Homo sapiens [30]): 7; Ratio IC50 (Homo sapiens [31]): 6; inhibition [32]: inactive; Activity (iPSC-CM [33]): inactive; inhibition [34]: inactive; inhibition [35]: inactive; inhibition [36]: inactive; Activity (iPSC-CM [37]): inactive; inhibition [38]: inactive; Ratio IC50 (Homo sapiens [39]): 1.1; inhibition [40]: inactive; inhibition [41]: inactive

From ChEMBL document CHEMBL4811281, “Identification of aryl sulfonamides as novel and potent inhibitors of NaV1.5” (Bioorg Med Chem Lett, 2021)
